Experimental data: US20070149465A1, “COMPOSITIONS AND METHODS FOR PREVENTION AND TREATMENT OF CACHEXIA” (priority 2005, published 2007)

How the values were obtained:
AH-inoculated rats = experiment: Rat AH130 Ascites Hepatoma Model of Cancer Cachexia, AH-inoculated rats; format: in vivo, female Wistar rats
Procedure: Following the method of Busquets et al (Busquets S, et al: Cancer Res 64:6725-31, 2004), female Wistar rats were inoculated (Day 0) intra-peritoneally (i.p.) with 2×10^7 cells/animal of Yoshida AH-130 ascites hepatoma (AH) cells. Control animals were inoculated with an equivalent amount of sterile saline solution. […] The animals were sacrificed on Day 5. Upon sacrifice, wet weights of heart and gastrocnemius muscle were determined. Carcass (after gastrocnemius, heart, and ascites removal) weight was also determined upon sacrifice.
Treatment Group=Inoculation Type/Vehicle, or Treatment Group=Inoculation Type/F(x)R(y) where, Inoculation Type is either AH or Saline, F is formoterol fumarate, R is roxithromycin, and the parenthetical values are formoterol fumarate and roxithromycin doses (i.p. in mg/kg).

[1] = Aqueous stability of roxithromycin (% Purity by HPLC); format: physicochemical; details: for Roxithromycin % Purity By Area Normalization: 2 mg/mL, 25° C.
Procedure: Roxithromycin stability was determined for 2 mg/mL [roxithromycin] at 5, 25, and 40° C. as a function of pH and buffer (citrate) concentration. Roxithromycin %Purity was determined by area normalization using a reverse-phase HPLC method that meets the requirements of the EP Monograph. Solution pH values were determined per USP <791>.

[2] = Exp 1 Group 4, AH, F 0, R 5 mg/kg i.p., Day 5, normalized to 100 g Day 5 Total Body Weight
[3] = Exp 4 Group 21, AH, F 0, R 50 mg/kg i.p., Day 5, sample weight normalized to 100 g Day 5 Total Body Weight
[4] = Experiment 4, AH/F(0)R(50) group

stability of aqueous formulation ([1]; 2 mg/mL roxithromycin, 20 mM citrate buffer at pH 6): satisfactory | Roxithromycin % Purity By Area Normalization ([1]; citrate pH 4, 20 mM, 0 mo): 81% | Roxithromycin % Purity By Area Normalization ([1]; citrate pH 4, 20 mM, 0.3 mo): 74% | Roxithromycin % Purity By Area Normalization ([1]; citrate pH 4, 20 mM, 0.5 mo): 70% | Roxithromycin % Purity By Area Normalization ([1]; citrate pH 4, 20 mM, 0.9 mo): 65% | Roxithromycin % Purity By Area Normalization ([1]; citrate pH 4, 20 mM, 1.5 mo): 56% | Roxithromycin % Purity By Area Normalization ([1]; citrate pH 4, 20 mM, 2.6 mo): 48% | Roxithromycin % Purity By Area Normalization ([1]; citrate pH 4, 20 mM, 5.3 mo): 28% | Roxithromycin % Purity By Area Normalization ([1]; citrate pH 4, 20 mM, 7.3 mo): 15% | Roxithromycin % Purity By Area Normalization ([1]; citrate pH 4, 50 mM, 0 mo): 78% | Roxithromycin % Purity By Area Normalization ([1]; citrate pH 4, 50 mM, 0.3 mo): 71% | Roxithromycin % Purity By Area Normalization ([1]; citrate pH 4, 50 mM, 0.5 mo): 65% | Roxithromycin % Purity By Area Normalization ([1]; citrate pH 4, 50 mM, 0.9 mo): 59% | Roxithromycin % Purity By Area Normalization ([1]; citrate pH 4, 50 mM, 1.5 mo): 47% | Roxithromycin % Purity By Area Normalization ([1]; citrate pH 4, 50 mM, 2.6 mo): 33% | Roxithromycin % Purity By Area Normalization ([1]; citrate pH 4, 50 mM, 5.3 mo): 15% | Roxithromycin % Purity By Area Normalization ([1]; citrate pH 4, 50 mM, 7.3 mo): 6% | Roxithromycin % Purity By Area Normalization ([1]; citrate pH 5, 20 mM, 0 mo): 96% | Roxithromycin % Purity By Area Normalization ([1]; citrate pH 5, 20 mM, 0.3 mo): 88% | Roxithromycin % Purity By Area Normalization ([1]; citrate pH 5, 20 mM, 0.5 mo): 84% | Roxithromycin % Purity By Area Normalization ([1]; citrate pH 5, 20 mM, 0.9 mo): 80% | Roxithromycin % Purity By Area Normalization ([1]; citrate pH 5, 20 mM, 1.5 mo): 77% | Roxithromycin % Purity By Area Normalization ([1]; citrate pH 5, 20 mM, 2.6 mo): 75% | Roxithromycin % Purity By Area Normalization ([1]; citrate pH 5, 20 mM, 5.3 mo): 75% | Roxithromycin % Purity By Area Normalization ([1]; citrate pH 5, 20 mM, 7.3 mo): 71% | Roxithromycin % Purity By Area Normalization ([1]; citrate pH 5, 50 mM, 0 mo): 92% | Roxithromycin % Purity By Area Normalization ([1]; citrate pH 5, 50 mM, 0.3 mo): 82% | Roxithromycin % Purity By Area Normalization ([1]; citrate pH 5, 50 mM, 0.5 mo): 78% | Roxithromycin % Purity By Area Normalization ([1]; citrate pH 5, 50 mM, 0.9 mo): 77% | Roxithromycin % Purity By Area Normalization ([1]; citrate pH 5, 50 mM, 1.5 mo): 74% | Roxithromycin % Purity By Area Normalization ([1]; citrate pH 5, 50 mM, 2.6 mo): 71% | Roxithromycin % Purity By Area Normalization ([1]; citrate pH 5, 50 mM, 5.3 mo): 67% | Roxithromycin % Purity By Area Normalization ([1]; citrate pH 5, 50 mM, 7.3 mo): 59% | Roxithromycin % Purity By Area Normalization ([1]; citrate pH 5, 100 mM, 0 mo): 90% | Roxithromycin % Purity By Area Normalization ([1]; citrate pH 5, 100 mM, 0.3 mo): 79% | Roxithromycin % Purity By Area Normalization ([1]; citrate pH 5, 100 mM, 0.5 mo): 76% | Roxithromycin % Purity By Area Normalization ([1]; citrate pH 6, 20 mM, 0 mo): 98% | Roxithromycin % Purity By Area Normalization ([1]; citrate pH 6, 20 mM, 0.3 mo): 97% | Roxithromycin % Purity By Area Normalization ([1]; citrate pH 6, 20 mM, 0.5 mo): 96% | Roxithromycin % Purity By Area Normalization ([1]; citrate pH 6, 20 mM, 0.9 mo): 96% | Roxithromycin % Purity By Area Normalization ([1]; citrate pH 6, 20 mM, 1.5 mo): 94% | Roxithromycin % Purity By Area Normalization ([1]; citrate pH 6, 20 mM, 2.6 mo): 92% | Roxithromycin % Purity By Area Normalization ([1]; citrate pH 6, 20 mM, 5.3 mo): 90% | Roxithromycin % Purity By Area Normalization ([1]; citrate pH 6, 20 mM, 7.3 mo): 87% | Roxithromycin % Purity By Area Normalization ([1]; citrate pH 6, 50 mM, 0 mo): 98% | Roxithromycin % Purity By Area Normalization ([1]; citrate pH 6, 50 mM, 0.3 mo): 96% | Roxithromycin % Purity By Area Normalization ([1]; citrate pH 6, 50 mM, 0.5 mo): 94% | Roxithromycin % Purity By Area Normalization ([1]; citrate pH 6, 50 mM, 0.9 mo): 92% | Roxithromycin % Purity By Area Normalization ([1]; citrate pH 6, 50 mM, 1.5 mo): 89% | Roxithromycin % Purity By Area Normalization ([1]; citrate pH 6, 50 mM, 2.6 mo): 85% | Roxithromycin % Purity By Area Normalization ([1]; citrate pH 6, 50 mM, 5.3 mo): 81% | Roxithromycin % Purity By Area Normalization ([1]; citrate pH 6, 50 mM, 7.3 mo): 78%
Structure (SMILES): CC[C@H]1OC(=O)[C@H](C)[C@@H](O[C@H]2C[C@@](C)(OC)[C@@H](O)[C@H](C)O2)[C@H](C)[C@@H](O[C@@H]2O[C@H](C)C[C@H](N(C)C)[C@H]2O)[C@](C)(O)C[C@@H](C)/C(=N\OCOCCOC)[C@H](C)[C@@H](O)[C@]1(C)O [roxithromycin]
Carcass Weights Mean (AH-inoculated rats; [2]): 94.35 g | Gastrocnemius Weights Mean (AH-inoculated rats; [2]): 0.493 g | Heart Weights Mean (AH-inoculated rats; [2]): 0.320 g | Carcass Mean (AH-inoculated rats; [3]): 94.1 | Gastrocnemius Mean (AH-inoculated rats; [3]): 0.500 | Heart Mean (AH-inoculated rats; [3]): 0.338 | gastrocnemius muscle loss compared with AH/vehicle group (AH-inoculated rats; Experiment 1, AH/F(0)R(5) group): approximately the same amount | gastrocnemius muscle weights compared with AH/vehicle group (AH-inoculated rats; [4]): significantly larger | gastrocnemius weights compared with AH/F(1)R(0) group (AH-inoculated rats; [4]): essentially identical | gastrocnemius weights compared with AH/F(1)R(50) group (AH-inoculated rats; [4]): slightly less | muscle wasting associated with the AH rat model (AH-inoculated rats; summary of Experiments 1-4): prevents muscle wasting | preventing AH-induced gastrocnemius muscle loss, roxithromycin alone compared with formoterol fumarate alone (AH-inoculated rats; summary of Experiments 1-4): effective as formoterol fumarate alone
